This note sets out measurements from PubChem BioAssay (NCI).

SMILES strings stand for the structures. “And” between values parts separate entries of the source, which are not always exact repeats. Identical values can stand only once.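 Where inhibition never reached the appropriate level, the endpoint shown equals the highest concentration tested. Otherwise, values were interpolated linearly from a five-concentration, 48-hour dose response in 96-well plates. At the GI50, growth is halved. TGI: concentration producing complete growth inhibition.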

Experiment in all cases: NCI-60 cell line screen, 48 h
Experiment [1] has as its system ACHN renal.
The subject of experiment [2] is CCRF-CEM leukemia.
Experiment [3] has as its system HCT-116 colon.
In experiment [4] the test system is IGROV1 ovarian.
Experiment [5] concerns NCI-H23 lung.
The subject of experiment [6] is NCI-H460 lung.
The test system of experiment [7] is NCI-H522 lung.
The subject of experiment [8] is SF-268 CNS.
Experiment [9] relates to SK-MEL-2 melanoma.
In experiment [10] the test system is UACC-62 melanoma.

With `Cc1cc2c(cc1Cl)N1C(=O)NS(=O)(=O)N=C1NS2(=O)=O`, the GI50 in experiment [1], in experiment [2], in experiment [3], in experiment [4], in experiment [5] and in experiment [6] was over 100 µM in each case. For the same compound, the GI50 in experiment [7], in [8], in [9] and in experiment [10] was over 100 µM each time. Also, the TGI in experiment [1], in experiment [2], in experiment [3], in experiment [4], in experiment [5] and in [6] was over 100 µM in each case. Further, the TGI in experiment [7], in experiment [8], in [9] and in experiment [10] was over 100 µM throughout.
`COc1ccc2c(c1)N(CCO)C1=C(C(=O)OC1)C2c1ccc(OC)c(OC)c1` (stereo not drawn): the GI50 was 6.3 µM in experiment [1]; 3.99 µM in experiment [2]; 2.64 µM in [3]; 3.46 µM in [4]; 3.39 µM in [5]; 3.09 µM in experiment [6]. Besides, the GI50 in experiment [7] was 1.48 µM; in [8], 4.5 µM; in experiment [9], 2.66 µM; in experiment [10] it was 2.13 µM. The TGI in experiment [1] was over 100 µM; in experiment [2] it was over 100 µM; in [3], 15.3 µM; in experiment [4], over 100 µM; in experiment [5], over 100 µM; in [6], 12.6 µM. Further, the TGI is 5.25 µM in experiment [7], over 100 µM in experiment [8], 11.3 µM in experiment [9] and over 100 µM in experiment [10].
Regarding `COc1c2ccccc2c(O)c2c(=O)ccn(C)c12`, the GI50 in experiment [1] is 6.13 µM; in [2] it was 26.8 µM; in experiment [3], 3.13 µM; in experiment [4], 30.9 µM; in [5] it was 1.73 µM; in experiment [6], 3.51 µM. Further, the GI50 in experiment [7] was 23.9 µM; in [8], 16.5 µM; in experiment [9], 22.6 µM; in experiment [10], 2.75 µM. The TGI is 46.3 µM in [1]; over 100 µM in [2]; 13.1 µM in experiment [3]; over 100 µM in [4]; 4.08 µM in experiment [5]; 17 µM in experiment [6]. Besides, the TGI is over 100 µM in [7], over 68.9 µM in experiment [8], over 100 µM in experiment [9] and 7.5 µM in [10].
For `OCc1ccc(N(Cc2ccc(F)cc2)CC2CCC2)cc1Cl`, the GI50 is 13 µM in experiment [1]; 15.1 µM in experiment [2]; 1.85 µM in experiment [3]; 0.755 µM in experiment [4]; 10.7 µM in [5]; 3.17 µM in [6]. In addition, the GI50 in [7] was 12.7 µM; in experiment [8] it was 17.1 µM; in experiment [9], 11.2 µM; in experiment [10] it was 1.57 µM. For the same compound, the TGI came out at 26 µM in [1]; 36 µM in [2]; 11.5 µM in [3]; 4.05 µM in experiment [4]; 24.7 µM in experiment [5]; 15 µM in [6]. Moreover, the TGI amounted to 27.1 µM in experiment [7], 32.1 µM in [8], 25.2 µM in experiment [9] and 8.34 µM in experiment [10].
Turning to `COc1cc(NC(=O)c2ccccc2Nc2ccnc(C(F)(F)F)c2)cc(OC)c1OC`, the GI50 was 99.9 µM in [1]; 50.7 µM in experiment [2]; 49.6 µM in experiment [3]; 35.1 µM in [4]; 44 µM in experiment [5]; 69.6 µM in experiment [6]. Moreover, the GI50 in experiment [7] was 38.2 µM; in experiment [8] it was over 100 µM; in [9] it was 51.1 µM; in experiment [10] it was 36.8 µM. The TGI in experiment [1] was over 100 µM; in experiment [2], over 100 µM; in experiment [3], over 100 µM; in experiment [4] it was 89.7 µM; in [5], over 100 µM; in experiment [6] it was over 100 µM. For the same compound, the TGI in experiment [7], in experiment [8], in experiment [9] and in experiment [10] was over 100 µM throughout.
Regarding `CCN(CCO)CCCOc1ccc2c(Nc3cc(CC(=O)Nc4cccc(F)c4)[nH]n3)ncnc2c1`, the GI50 in experiment [1] is over 100 µM; in [2], < 0.01 µM and 0.0047 µM; in [3], 9.63 µM; in [4], 26.1 µM; in experiment [5], 17.4 µM; in [6], 0.071 µM and 0.0456 µM. The GI50 is 9.62 µM in experiment [8], 16.9 µM in experiment [9] and 26.1 µM in experiment [10]. Also, the TGI in experiment [1] was over 100 µM; in experiment [2], 47.9 µM and > 5.1 µM; in [3] it was 34.6 µM and > 10 µM; in experiment [4] it was over 93.1 µM; in [5], over 53.1 µM; in [6], 21.3 µM and > 3.81 µM. Moreover, the TGI is 37.2 µM and > 4.22 µM in experiment [7]; 32.2 µM and > 10 µM in experiment [8]; 35.4 µM and > 2.16 µM in [9]; over 59.3 µM in [10].
Take `C[C@H](c1ccccc1)N(CCC(=O)O)C(=O)CCN(C(=O)CCN(C(=O)CCN[C@H](C)c1ccccc1)[C@H](C)c1ccccc1)[C@H](C)c1ccccc1`: the GI50 in experiment [1], in [2], in experiment [3], in experiment [4], in experiment [5] and in [6] was over 100 µM throughout. Besides, the GI50 in experiment [7], in experiment [8], in [9] and in experiment [10] was over 100 µM in each case. In addition, the TGI in [1], in [2], in [3], in experiment [4], in experiment [5] and in experiment [6] was over 100 µM in each case. The TGI in experiment [7], in [8], in experiment [9] and in experiment [10] was over 100 µM in each case.
As to `O=c1c2cc(O)c(O)cc2oc2cc(O)c(C3OC(CO)C(O)C(O)C3O)c(O)c12` (stereo not drawn), the TGI in experiment [1], in experiment [2], in [3], in experiment [4], in experiment [5] and in experiment [6] was over 100 µM each time. The TGI in experiment [7], in [8], in [9] and in [10] was over 100 µM in each case.
Regarding `O=C1CC[C@@H](NC(=O)Cc2ccccc2)C(=O)N1`, the TGI in experiment [1], in experiment [2], in experiment [3], in experiment [4], in experiment [5] and in experiment [6] was over 100 µM each time. For the same compound, the TGI in experiment [7], in experiment [8], in experiment [9] and in [10] was over 100 µM in each case.
Consider `COc1cc(NC(C)CCCN2C(=O)c3ccccc3C2=O)c2ncccc2c1OC` (stereo not drawn), for which the GI50 was 29.9 µM in experiment [1]; 49.2 µM in experiment [2]; 31.2 µM in experiment [3]; 18.6 µM in [4]; 26.3 µM in [5]; 35.5 µM in [6]. Besides, the GI50 in experiment [7] is 35.4 µM; in experiment [8] it was 55.7 µM; in experiment [9] it was 29 µM; in experiment [10] it was 35.9 µM. Besides, the TGI in experiment [1], in [2], in experiment [3], in experiment [4], in [5] and in [6] was over 100 µM each time. Also, the TGI in experiment [7], in experiment [8], in experiment [9] and in experiment [10] was over 100 µM each time.
For `CS(=O)(=O)N1CCc2c(-c3cnc(N)nc3)nc(N3CCOCC3)nc21`, the GI50 in experiment [1] was 0.735 µM and 0.677 µM; in [2] it was 0.658 µM and 1.23 µM; in experiment [3] it was 0.571 µM and 0.553 µM; in experiment [4] it was 0.0868 µM and 0.0664 µM; in [5] it was 1.94 µM and 1.37 µM; in experiment [6] it was 0.333 µM and 0.286 µM. For the same compound, the GI50 in experiment [7] was 0.642 µM and 2.1 µM; in [8] it was 0.821 µM and 1.05 µM; in [9] it was 1.28 µM and 1.77 µM; in experiment [10], 0.28 µM and 0.393 µM. The TGI in experiment [1] was over 100 µM; in [2] it was over 100 µM; in experiment [3], over 100 µM; in experiment [4], 0.443 µM and 0.485 µM; in experiment [5], over 100 µM; in [6], over 100 µM. In addition, the TGI in experiment [7] is over 48.7 µM; in experiment [8], over 51.6 µM; in [9], 8.66 µM and 14 µM; in [10] it was 2.24 µM and 2.9 µM.
Take `O=C1/C(=C/c2ccccc2[N+](=O)[O-])COc2ccc(O)c(O)c21`: the GI50 in experiment [1] is 0.278 µM; in experiment [2], 0.365 µM; in experiment [3], 0.297 µM; in experiment [4], 0.73 µM; in [5] it was 1.54 µM; in experiment [6], 1.38 µM. Besides, the GI50 in experiment [7] is 0.208 µM; in experiment [8], 1.18 µM; in experiment [9] it was 2.18 µM; in experiment [10], 0.864 µM. The TGI in experiment [1] is 0.863 µM; in experiment [2], over 50 µM; in experiment [3], 1.1 µM; in experiment [4], 2.55 µM; in [5] it was 5.22 µM; in experiment [6], 4.94 µM. The TGI in experiment [7] came to 0.509 µM; in [8], 4.58 µM; in experiment [9], 5.99 µM; in experiment [10], 2.4 µM.
Take `CCN1C(=O)N(CC)C2C1NN=c1s/c(=C\c3ccc(OC)cc3)c(=O)n12` (stereo not drawn): the GI50 in experiment [1] is 0.165 µM; in experiment [2] it was 0.304 µM; in experiment [3] it was 0.188 µM; in [4], 0.295 µM; in experiment [5] it was 0.494 µM; in [6], 0.242 µM. Also, the GI50 was 0.105 µM in experiment [7], 0.577 µM in experiment [8], 1.66 µM in experiment [9] and 0.0704 µM in experiment [10]. The TGI in experiment [1], in experiment [2], in experiment [3], in experiment [4], in experiment [5] and in experiment [6] was over 100 µM throughout. Moreover, the TGI in experiment [8] was over 80.1 µM; in experiment [9], over 100 µM; in experiment [10], over 100 µM.
Consider `CCCCC(C(=O)CCC(=O)Nc1ccc(Cl)cc1)C(=O)C(C)C` (stereo not drawn), for which the TGI in experiment [1], in experiment [2], in experiment [3], in experiment [4], in experiment [5] and in experiment [6] was over 100 µM in each case. In addition, the TGI in experiment [7], in [8], in experiment [9] and in experiment [10] was over 100 µM throughout.
Take `O=C1NC(=O)C(c2c[nH]c3ccccc23)=C1c1ccccc1`: the GI50 in experiment [1], in experiment [2], in experiment [3], in experiment [4], in experiment [5] and in [6] was over 25 µM throughout. Besides, the GI50 in [7], in experiment [8], in experiment [9] and in experiment [10] was over 25 µM each time. The TGI in [1], in experiment [2], in [3], in [4], in experiment [5] and in [6] was over 25 µM throughout. The TGI in experiment [7], in experiment [8], in [9] and in experiment [10] was over 25 µM throughout.
Turning to `Oc1cccc(-c2nc(-c3ccccc3)[nH]c2-c2ccncc2)c1`, the GI50 was 9.08 µM in experiment [1]; 17.1 µM in experiment [2]; 9.91 µM in experiment [3]; 10.4 µM in experiment [4]; 12.4 µM in experiment [5]; 11.6 µM in [6]. The GI50 in experiment [7] was 11.8 µM; in experiment [8], 24.3 µM; in [9], 6.91 µM; in [10], 1.59 µM. For the same compound, the TGI in experiment [1], in [2], in experiment [3], in [4], in experiment [5] and in experiment [6] was over 25 µM each time. The TGI in experiment [7] was over 25 µM; in experiment [8], over 25 µM; in experiment [9] it was 18.9 µM; in experiment [10], over 25 µM.
